In patent publication US10674699B2, “Endophyte enhanced seedlings with increased pest tolerance” (priority 2006, dated 2020):

Key:
[1] = test system: Choristoneura fumiferana (spruce budworm) larvae; experiment: Dietary rugulosin in artificial diet, spruce budworm larvae; type: in vivo
Protocol: Spruce budworm (Choristoneura fumiferana) larvae were obtained from the colony at the Natural Resources Canada, Canadian Forest Service Laboratory in Sault Ste. Marie, Ontario and stored at 5° C. For each test, second instar larvae are put in creamer cups containing approximately 15 ml of artificial diet which had been prepared the day before and allowed to set overnight. The diet used is based on McMorran (1965) as modified by Forestry Canada. The cups are placed in a growth chamber at 22° C., 55% RH with 16 h light/day until they reach 4-5 instar as estimated by visually assessment. Batches of diet are prepared and suitable portions were measured out for addition of extracts, fractions or pure compounds. After 4 days on the test diet, the budworms were frozen, weighed and measured. The data was analyzed for dry weight reductions in comparison to controls and for changes in the distribution of insects at different instars in comparison to controls.
C. fumiferana larvae (spruce budworm) were obtained from Insect Production Services, Forestry Canada (Sault Ste. Marie, ON) and stored at 5° C. For each test, a sufficient number of larvae were hatched and put in creamer cups containing 15 ml of artificial diet. The diet was prepared in-house (McMorran 1965). The cups were placed in a growth chamber at 22° C., 55% RH with 16 h light/day until the larvae reached second/third instar (McGugan 1954). A suitable amount of diet was prepared, and 4 aliquots dispensed into a flask. Dilutions of pure rugulosin were made in 95% ethanol to provide the required concentrations (540 μl ethanol solution plus the vehicle control) and added to the flasks respectively. The diet was mixed with a stir bar and by the pipette used to dispense the media. Two drops of hot liquid diet were added with a 10 ml sterile pipette (0.1 g dry weight) to 4 ml tapered plastic sample cups (Fisher Scientific #025444, #25444A). […] Head capsule widths were determined using a stereo microscope at 40× with ocular and stage micrometers. […]

[2] = test system: Gram positive and negative bacteria; settings: reported by many authors, e.g. Stark et al. 1978; cited from earlier work
Aspergillus fumigatus = experiment: Fungal growth in budmoth test vials with dietary rugulosin; type: cell-based; settings: A. fumigatus-contaminated larvae; few vials with fungal growth at 100 and 150 μM
Protocol: Zeiraphera canadensis larvae (spruce budmoth) were collected from the wild near Sussex in mid June. They were immediately put in test vials and tested at rugulosin concentrations of 10, 50, 100 and 150 μM (75 per concentration). After seven days, surviving larvae were frozen and measured.
Many (60%) succumbed to fungal infections (Aspergillus fumigatus) and other unknown causes over the course of rearing. […] However, using the Wilcoxon matched-pairs signed-ranks test, the larvae fed 100 or 150 μM rugulosin in the diet were lighter than those fed the 10 μM rugulosin and control diets (p<0.10). Because of the high percentage of A. fumigatus-contaminated larvae in the experiment, an unanticipated result was the antifungal activity observed above 50 μM, few vials had fungal growth in the tests at 100 μM and 150 μM rugulosin.

Cc1cc(O)c2c(c1)C(=O)[C@]13C(=C2O)C(=O)[C@@H]2[C@H](O)[C@H]1[C@@H]1[C@@H](O)[C@H]3C(=O)C3=C(O)c4c(O)cc(C)cc4C(=O)[C@]312 [rugulosin]
dietary rugulosin concentration with significantly reduced head capsule ([1]; artificial diet, 4 d): 100 µM | dietary toxic effect level for rugulosin ([1]; dietary LOEL adjusted for mean ratio dry weight:wet weight of needles): 0.5 µg/g | rugulosin concentration in vitro that affected budworm growth and development ([1]; in vitro (diet), Example 1): 1 µg/g | antibiotic activity [2]: antibiotic | rugulosin concentration above which antifungal activity was observed (Aspergillus fumigatus): above 50 μM
